# From patent US6020344A (priority 1998, dated 2000)
# Entries after “also recorded” stand apart in the source; their conditions may differ. Like-named read-outs stand apart in the source and are kept apart here.
# Assays:
# [1] = test system: Clostridium perfringens sialidase; format: biochemical; conditions: for binding/inhibition of 5a compared with 5b (in words): 5a vs 5b; for affinity relative to substrate (in words): Ki vs substrate Km; for Ki: Table 1, competitive inhibition fit; for competitive inhibitor potency (in words): summary statement
# [2] = target: bacterial sialidases; format: biochemical; conditions: read-out: Ki (range)
# [3] = target: T1, Vibrio cholerae sialidase (Vibrio cholerae serotype O1, UniProt P0C6E9)
# [4] = target: T2, Salmonella typhimurium sialidase (Salmonella typhimurium, UniProt P29768); test: biochemical
# [5] = target: T2, Salmonella typhimurium sialidase; conditions: for competitive inhibitor potency (in words): summary statement
# [6] = target: T1, Vibrio cholerae sialidase; test: biochemical
# [7] = test system: influenza neuraminidase; conditions: literature; FANA compared with DANA; cited from earlier work
# [8] = carboxyl group adjacent to the anomeric carbon; cited from earlier work
# [9] = test system: CC(=O)NC1C(O)CC(Oc2ccc([N+](=O)[O-])cc2)(C(=O)O)OC1C(O)C(O)CO; test: purified protein, by the assay type; conditions: pH 5.5; 30.0 °C
# T2 sequence (P29768 whole entry): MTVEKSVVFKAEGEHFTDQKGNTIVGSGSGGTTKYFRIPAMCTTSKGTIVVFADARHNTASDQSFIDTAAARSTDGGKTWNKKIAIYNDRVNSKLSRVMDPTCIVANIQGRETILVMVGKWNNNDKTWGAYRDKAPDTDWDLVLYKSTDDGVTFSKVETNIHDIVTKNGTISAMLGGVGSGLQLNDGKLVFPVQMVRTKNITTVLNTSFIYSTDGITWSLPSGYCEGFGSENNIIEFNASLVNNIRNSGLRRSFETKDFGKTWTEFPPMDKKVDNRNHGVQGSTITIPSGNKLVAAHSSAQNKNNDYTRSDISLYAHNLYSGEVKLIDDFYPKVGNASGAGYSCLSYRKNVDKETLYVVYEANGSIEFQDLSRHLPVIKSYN
# T1 sequence (P0C6E9 25-781): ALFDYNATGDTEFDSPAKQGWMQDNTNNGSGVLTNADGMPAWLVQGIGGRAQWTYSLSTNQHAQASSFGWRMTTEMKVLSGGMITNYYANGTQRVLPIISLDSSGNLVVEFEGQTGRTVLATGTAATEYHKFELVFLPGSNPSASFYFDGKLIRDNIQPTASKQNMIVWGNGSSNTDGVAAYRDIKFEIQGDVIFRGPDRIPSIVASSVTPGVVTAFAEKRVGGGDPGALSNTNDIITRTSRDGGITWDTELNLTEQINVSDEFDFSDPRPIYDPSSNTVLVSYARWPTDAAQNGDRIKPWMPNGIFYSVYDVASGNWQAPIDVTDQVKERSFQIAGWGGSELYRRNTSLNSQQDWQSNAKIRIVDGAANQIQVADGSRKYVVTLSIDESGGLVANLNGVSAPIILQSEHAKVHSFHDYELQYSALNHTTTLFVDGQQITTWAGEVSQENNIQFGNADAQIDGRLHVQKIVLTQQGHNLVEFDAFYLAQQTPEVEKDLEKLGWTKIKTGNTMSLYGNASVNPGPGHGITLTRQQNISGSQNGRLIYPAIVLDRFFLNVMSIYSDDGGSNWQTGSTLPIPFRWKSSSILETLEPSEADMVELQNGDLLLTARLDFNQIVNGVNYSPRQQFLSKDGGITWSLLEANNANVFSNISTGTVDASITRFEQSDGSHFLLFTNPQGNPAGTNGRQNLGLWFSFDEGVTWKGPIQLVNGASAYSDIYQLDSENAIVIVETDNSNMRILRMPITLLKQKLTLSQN
compound,measurement,setting,value
"CC(=O)N[C@H]1[C@H](O)CN(C(Cc2ccccc2)C(=O)O)C[C@@H]1O (relative stereo) [±5b, trans-trans-5-N-(1'-carboxy-benzyl-ethyl)-3,5-dihydroxy-4-acetamidopiperidine]",binding/inhibition of 5a compared with 5b (in words),[1],inhibited to the same extent
same,binding/inhibition of 5a compared with 5b (in words),[1]; listed as 5b,no net energetic advantage over binding 5a exists; also recorded: no preference
same,affinity relative to substrate (in words),[1],slightly lower affinity than substrate
same,Ki,"[1]; pH 5.5, 30° C.",500 ± 70 µM
same,competitive inhibitor potency (in words),[1],sub-millimolar competitive inhibitors
same,Ki,[2],100 to 1000 µM
same,binding / inhibition (in words),[3],modest inhibitor
same,binding of ±5b relative to 5a (in words),[3]; 5b vs 5a,bound tighter than 5a
same,binding relative to the p-nitrophenyl glycoside substrate,[3]; Ki vs substrate Km,approximately 2 × tighter
same,binding / inhibition (in words),[3]; listed as 5b,bind weakly
same,Ki,[4],560 ± 30 µM
same,binding of ±5b relative to 5a,[5]; 5b vs 5a,~5 times more tightly
same,binding of ±5b relative to 5a (in words),[5]; 5b vs 5a,bound tighter than 5a
same,type of inhibition (double reciprocal plot),[5]; FIG. 4,competitive
same,binding relative to the p-nitrophenyl glycoside substrate,[5]; Ki vs substrate Km,approximately 2 × tighter
same,competitive inhibitor potency (in words),[5],sub-millimolar competitive inhibitors
same,Ki,[6],1500 ± 200 µM
"CC(=O)NC1C(O)CC(Oc2ccc([N+](=O)[O-])cc2)(C(=O)O)OC1C(O)C(O)CO [2-O-(p-nitrophenyl)-a-D-N-acetylneuraminic acid, reference compound]",Km,"[1]; pH 5.5, 30° C.",280 ± 30 µM
CC(=O)N[C@H]1[C@H](O)CN(CC(=O)O)C[C@@H]1O [Compound 5a],binding/inhibition of 5a compared with 5b (in words),[1],inhibited to the same extent; also recorded: no preference
same,affinity relative to substrate (in words),[1],slightly lower affinity than substrate
same,Ki,"[1]; pH 5.5, 30° C.",400 ± 100 µM
same,competitive inhibitor potency (in words),[1],sub-millimolar competitive inhibitors
same,Ki,[2],100 to 1000 µM
same,binding / inhibition (in words),[3],bind weakly
same,inhibition at concentrations up to / below 2 mM,"[3]; up to 2 mM 5a, pH 5.5, 30° C.",No inhibition; also recorded: did not show inhibition
same,Ki,[4],2500 ± 400 µM
same,competitive inhibitor potency (in words),[5],sub-millimolar competitive inhibitors
same,Ki,[6],> 2000 µM
"CC(=O)N[C@H]1[C@H]([C@H](O)[C@H](O)CO)OC(C(=O)O)=C[C@@H]1O [DANA, 2-deoxy-2,3-dehydro-N-acetylneuraminic acid]",in vitro inhibition of influenza neuraminidase (in words),[7],effective in vitro inhibitor of NA; also recorded: among the most potent thus far described
"O=C(O)C1=C[C@H](O)[C@@H](NC(=O)C(F)(F)F)[C@H]([C@H](O)[C@H](O)CO)O1 [FANA, 2-deoxy-2,3-dehydro-N-(trifluoroacetyl) neuraminic acid]",in vitro inhibition of influenza neuraminidase (in words),[7],greater in vitro activity
CC(=O)N[C@H]1[C@H]([C@H](O)[C@H](O)CO)OC(O)(C(=O)O)C[C@@H]1O (stereo partly drawn) [N-acetyl neuraminic acid],pKa,[8],~ 2.8
Salmonella typhimurium sialidase (Salmonella enterica subsp. enterica serovar Typhimurium str. LT2),Km,[9],1200 µM
Vibrio cholerae sialidase (Vibrio cholerae O1 biovar El Tor str. N16961),Km,[9],2700 µM
